Experimental data as given in patent US9127303B2, “Method for detection of beta-D-glucuronidase activity in a sample” (Biosynth AG, priority 2011, dated 2015).

What was measured:
[1] = tested on: esterase (from porcine liver); assay: Enzymatic assay with esterase only; assay type: biochemical; conditions: 10 units esterase only, 0.1 mM, pH 6.8, 37° C., 1 hour
Experimental: (§1) Resorufin-beta-D-glucuronic acid or Resorufin-beta-D-glucuronic acid methyl ester was incubated in presence of glucuronidase, esterase, both enzymes or without enzyme. Measurements were done in microtiter plates at 37° C. in a Spectramax M5 platereader (λex=570 nm, λem=600 nm). Fluorescence in arbitrary units (RFU, relative fluorescence units) is plotted vs. time (min).
(§2) Wells of a microtiter plate were filled with buffer (35 mM potassium phosphate, 4.7 mg/ml bovine serum albumin, pH 6.8) containing Resorufin-beta-D-glucuronic acid or Resorufin-beta-D-glucuronic acid methyl ester at concentrations of 0.1 mM. To the wells were added either a) 0.3 unit beta-D-glucuronidase (type VII-A from E. coli) or b) 10 units esterase (from porcine liver) or c) 0.3 unit beta-D-glucuronidase and 10 units esterase or d) no enzyme. The microtiter plate was incubated at 37° C. for 1 hour. Fluorescence was measured every 1.5 minutes at an excitation wavelength of 570 nm and an emission wavelength of 600 nm (FIG. 2).

[2] = tested on: beta-D-glucuronidase positive strains (Escherichia coli); assay: Detection of microbial beta-D-glucuronidase activity in broth cultures in microtiter plates; assay type: cell-based; conditions: NB, 0.1 mM, 37° C., 20 hours; for Fluorescence (excitation 570 nm, emission 600 nm) over time: about 10 cfu
Experimental: (§3) Fluorescence in arbitrary units (RFU, relative fluorescence units) is plotted vs. time (h).
(§4) Wells of a microtiter plate were filled with Nutrient Broth (NB: 5 g/l peptone, 5 g/l NaCl, 2 g/l yeast extract, 1 g/l beef extract, pH 7.4) containing Resorufin-beta-D-glucuronic acid or Resorufin-beta-D-glucuronic acid methyl ester at concentrations of 0.1 mM. The wells were inoculated with about 10 cfu of cultures pregrown over night on NB and incubated at 37° C. for 20 hours. Fluorescence was measured every 20 minutes at an excitation wavelength of 570 nm and an emission wavelength of 600 nm (FIG. 1).

[3] = tested on: E. coli culture; assay: Detection of microbial beta-D-glucuronidase in preincubated medium; assay type: cell-based; conditions: NB with 0.2 mM, preincubated 21 h, 3.5 h, 0 h at 37° C., E. coli about 10^8 cfu/ml
Experimental: The media with the Resorufin-beta-D-glucuronic acid methyl ester were preincubated for different time periods. Measurements were done in microtiter plates at 37° C. in a Spectramax M5 platereader (λex=570 nm, λem=600 nm). Fluorescence in arbitrary units (RFU, relative fluorescence units) is plotted vs. time (min).
(§5) Wells of a microtiter plate were filled with 100 μl Nutrient Broth (NB: 5 g/l peptone, 5 g/l NaCl, 2 g/l yeast extract, 1 g/l beef extract, pH 7.4) containing Resorufin-beta-D-glucuronic acid or Resorufin-beta-D-glucuronic acid methyl ester at concentrations of 0.2 mM. The wells were incubated for different times (21 h, 3.5 h, 0 h) at 37° C. After incubation, 100 μl of an E. coli culture pregrown over night on NB was added (about 10^8 cfu/ml). Fluorescence was measured every 1.5 minutes at an excitation wavelength of 570 nm and an emission wavelength of 600 nm (FIG. 3). The longer the preincubation time of the medium, the more Resorufin-beta-D-glucuronic acid originated from the Resorufin-beta-D-glucuronic acid methyl ester through hydrolysis.

[4] = Hydrolysis of the methyl ester in Nutrient Broth medium; assay type: physicochemical; conditions: pH 7.4, 37° C.
Experimental: as §5

[5] = tested on: beta-D-glucuronidase negative strains; assay: Detection of microbial beta-D-glucuronidase activity in broth cultures in microtiter plates; assay type: cell-based, Citrobacter freundii, Salmonella enteritidis; conditions: NB, 0.1 mM, 37° C., 20 hours
Experimental: as §3, §4

[6] = tested on: Aeromonas hydrophila; assay: Detection of microbial beta-D-glucuronidase in broth cultures in test tubes; assay type: cell-based; parameters: key: positive (pink colour); negative (yellow colour); conditions: 1 strain, TBB, 0.1 mM, 37° C., 16 hours
Experimental: (§6) Resorufin-beta-D-glucuronic acid or Resorufin-beta-D-glucuronic acid methyl ester was added to test tubes containing 3 ml of Nutrient Broth (NB: 5 g/l peptone, 5 g/l NaCl, 2 g/l yeast extract, 1 g/l beef extract, pH 7.4) or Tryptone Bile Broth (TBB: 20 g/l tryptone, 1.5 g/l bile salts No. 3) at a concentration of 0.1 mM. Tubes were inoculated with cultures pregrown over night on NB and incubated at 37° C. for 16 hours. Tubes were scored visually for beta-D-glucuronidase activity as positive (pink colour) or negative (yellow colour). Both substrates gave the same results for all strains tested (Table 1), showing that the Resorufin-beta-D-glucuronic acid methyl ester can be used in place of the Resorufin-beta-D-glucuronic acid for detection of E. coli.

[7] = tested on: Citrobacter freundii; assay: as above; assay type: cell-based; parameters: key: positive (pink colour); negative (yellow colour); conditions: 1 strain, TBB, 0.1 mM, 37° C., 16 hours
Experimental: as §6

[8] = tested on: Escherichia coli; assay: as above; assay type: cell-based; parameters: key: positive (pink colour); negative (yellow colour); conditions: 19 strains, TBB, 0.1 mM, 37° C., 16 hours
Experimental: as §6

[9] = tested on: Staphylococcus haemolyticus; assay: as above; assay type: cell-based; parameters: key: positive (pink colour); negative (yellow colour); conditions: 1 strain, NB, 0.1 mM, 37° C., 16 hours
Experimental: as §6

[10] = tested on: Enterococcus faecalis; assay: as above; assay type: cell-based; parameters: key: positive (pink colour); negative (yellow colour); conditions: 1 strain, TBB, 0.1 mM, 37° C., 16 hours
Experimental: as §6

[11] = tested on: Salmonella Enteritidis; assay: as above; assay type: cell-based; parameters: key: positive (pink colour); negative (yellow colour); conditions: 1 strain, TBB, 0.1 mM, 37° C., 16 hours
Experimental: as §6

[12] = tested on: Yersinia enterocolitica; assay: as above; assay type: cell-based; parameters: key: positive (pink colour); negative (yellow colour); conditions: 1 strain, NB, 0.1 mM, 37° C., 16 hours
Experimental: as §6

[13] = tested on: Hafnia alvei; assay: as above; assay type: cell-based; parameters: key: positive (pink colour); negative (yellow colour); conditions: 1 strain, NB, 0.1 mM, 37° C., 16 hours
Experimental: as §6

[14] = tested on: Serratia marcescens; assay: as above; assay type: cell-based; parameters: key: positive (pink colour); negative (yellow colour); conditions: 1 strain, TBB, 0.1 mM, 37° C., 16 hours
Experimental: as §6

[15] = tested on: Staphylococcus aureus; assay: as above; assay type: cell-based; parameters: key: positive (pink colour); negative (yellow colour); conditions: 1 strain, NB, 0.1 mM, 37° C., 16 hours
Experimental: as §6

[16] = tested on: Vibrio parahaemolyticus; assay: as above; assay type: cell-based; parameters: key: positive (pink colour); negative (yellow colour); conditions: 1 strain, NB, 0.1 mM, 37° C., 16 hours
Experimental: as §6

[17] = tested on: Pseudomonas aeruginosa; assay: as above; assay type: cell-based; parameters: key: positive (pink colour); negative (yellow colour); conditions: 1 strain, TBB, 0.1 mM, 37° C., 16 hours
Experimental: as §6

[18] = tested on: Salmonella Typhimurium; assay: as above; assay type: cell-based; parameters: key: positive (pink colour); negative (yellow colour); conditions: 1 strain, NB, 0.1 mM, 37° C., 16 hours
Experimental: as §6

[19] = tested on: Enterobacter cloacae; assay: as above; assay type: cell-based; parameters: key: positive (pink colour); negative (yellow colour); conditions: 1 strain, NB, 0.1 mM, 37° C., 16 hours
Experimental: as §6

[20] = tested on: Acinetobacter baumanii; assay: as above; assay type: cell-based; parameters: key: positive (pink colour); negative (yellow colour); conditions: 1 strain, NB, 0.1 mM, 37° C., 16 hours
Experimental: as §6

[21] = tested on: Klebsiella pneumoniae; assay: as above; assay type: cell-based; parameters: key: positive (pink colour); negative (yellow colour); conditions: 1 strain, TBB, 0.1 mM, 37° C., 16 hours
Experimental: as §6

[22] = tested on: Enterobacter aerogenes; assay: as above; assay type: cell-based; parameters: key: positive (pink colour); negative (yellow colour); conditions: 1 strain, TBB, 0.1 mM, 37° C., 16 hours
Experimental: as §6

[23] = tested on: Escherichia coli O157:H7; assay: as above; assay type: cell-based; parameters: key: positive (pink colour); negative (yellow colour); conditions: Escherichia coli O157:H7, 2 strains, TBB, 0.1 mM, 37° C., 16 hours
Experimental: as §6

[24] = tested on: Bacillus cereus; assay: as above; assay type: cell-based; parameters: key: positive (pink colour); negative (yellow colour); conditions: 1 strain, NB, 0.1 mM, 37° C., 16 hours
Experimental: as §6

[25] = tested on: Proteus vulgaris; assay: as above; assay type: cell-based; parameters: key: positive (pink colour); negative (yellow colour); conditions: 1 strain, NB, 0.1 mM, 37° C., 16 hours
Experimental: as §6

[26] = target: beta-D-glucuronidase (type VII-A from E. coli) (Escherichia coli, UniProt P05804); assay: Enzymatic assay with purified beta-D-glucuronidase; assay type: biochemical; conditions: 0.1 mM, pH 6.8, 37° C., 1 hour
beta-D-glucuronidase (type VII-A from E. coli), sequence (P05804 whole entry): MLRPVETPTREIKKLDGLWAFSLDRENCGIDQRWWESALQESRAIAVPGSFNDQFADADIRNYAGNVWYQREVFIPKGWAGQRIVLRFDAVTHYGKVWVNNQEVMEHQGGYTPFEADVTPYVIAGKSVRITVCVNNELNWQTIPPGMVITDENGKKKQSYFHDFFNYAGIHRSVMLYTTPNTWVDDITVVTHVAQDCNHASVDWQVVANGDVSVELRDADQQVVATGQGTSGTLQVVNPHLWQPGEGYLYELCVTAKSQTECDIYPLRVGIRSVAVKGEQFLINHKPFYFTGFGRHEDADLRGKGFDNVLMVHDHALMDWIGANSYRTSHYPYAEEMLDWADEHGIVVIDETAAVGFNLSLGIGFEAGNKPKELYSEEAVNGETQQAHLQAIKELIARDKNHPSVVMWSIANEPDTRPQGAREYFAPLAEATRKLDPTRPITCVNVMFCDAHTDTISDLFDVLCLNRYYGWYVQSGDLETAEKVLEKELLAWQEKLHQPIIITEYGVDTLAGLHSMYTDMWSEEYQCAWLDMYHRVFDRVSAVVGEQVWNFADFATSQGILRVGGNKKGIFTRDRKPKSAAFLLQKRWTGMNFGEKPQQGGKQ
Experimental: as §1, §2

[27] = 0.3 unit beta-D-glucuronidase and 10 units esterase
[28] = 0.3 unit beta-D-glucuronidase without esterase

| SMILES | Fluorescence (excitation 570 nm, emission 600 nm) over time [1] | Fluorescence (excitation 570 nm, emission 600 nm) over time [2] | Fluorescence (excitation 570 nm, emission 600 nm) over time [5] | Result, beta-D-glucuronidase activity scored visually [6] | Result, beta-D-glucuronidase activity scored visually [7] | Result, beta-D-glucuronidase activity scored visually [8] | Result, beta-D-glucuronidase activity scored visually [9] | Result, beta-D-glucuronidase activity scored visually [10] | Result, beta-D-glucuronidase activity scored visually [11] | Result, beta-D-glucuronidase activity scored visually [12] | Result, beta-D-glucuronidase activity scored visually [13] | Result, beta-D-glucuronidase activity scored visually [14] | Result, beta-D-glucuronidase activity scored visually [15] | Result, beta-D-glucuronidase activity scored visually [16] | Result, beta-D-glucuronidase activity scored visually [17] | Result, beta-D-glucuronidase activity scored visually [18] | Result, beta-D-glucuronidase activity scored visually [19] | Result, beta-D-glucuronidase activity scored visually [20] | Result, beta-D-glucuronidase activity scored visually [21] | Result, beta-D-glucuronidase activity scored visually [22] | other results |
| --- | --- | --- | --- | --- | --- | --- | --- | --- | --- | --- | --- | --- | --- | --- | --- | --- | --- | --- | --- | --- | --- |
| COC(=O)[C@H]1O[C@@H](Oc2ccc3nc4ccc(=O)cc-4oc3c2)[C@H](O)[C@@H](O)[C@@H]1O [Resorufin-beta-D-glucuronic acid methyl ester] | low background signal | increase in fluorescence | only low background signal | negative | negative | positive | negative | negative | negative | negative | negative | negative | negative | negative | negative | negative | negative | negative | negative | negative | Speed of increase in fluorescence compared with Resorufin-beta-D-glucuronic acid [2]: a little slower; Fluorescence signal after adding E. coli culture, compared with Resorufin-beta-D-glucuronic acid medium [3]: gets closer to the signal from media originally containing the Resorufin-beta-D-glucuronic acid with longer preincubation time; Hydrolysis of the methyl ester to Resorufin-beta-D-glucuronic acid in medium [4]: surprisingly fast; Result, beta-D-glucuronidase activity scored visually [23]: negative; Result, beta-D-glucuronidase activity scored visually [24]: negative; Result, beta-D-glucuronidase activity scored visually [25]: negative; Fluorescence (excitation 570 nm, emission 600 nm) over time [26, 27]: fast increase of fluorescence; Fluorescence (excitation 570 nm, emission 600 nm) over time [26, 28]: only a slow increase of fluorescence |
| O=C([O-])C1OC(Oc2ccc3nc4ccc(=O)cc-4oc3c2)C(O)C(O)C1O.[Na+] [Resorufin-beta-D-glucuronic acid, reference compound] | low background signal | increase in fluorescence | only low background signal | negative | negative | positive | negative | negative | negative | negative | negative | negative | negative | negative | negative | negative | negative | negative | negative | negative | Result, beta-D-glucuronidase activity scored visually [23]: negative; Result, beta-D-glucuronidase activity scored visually [24]: negative; Result, beta-D-glucuronidase activity scored visually [25]: negative; Fluorescence (excitation 570 nm, emission 600 nm) over time [26, 27]: fast increase of fluorescence; Fluorescence (excitation 570 nm, emission 600 nm) over time [26, 28]: fast increase of fluorescence |
